Experimental findings from patent EP0640600A1, “Heterocyclylbenzoheterocycles” (BAYER AG, priority 1993, dated 1995) are described below.

In data set [1] the test system is Kulturpflanzen, wie z.B. Weizen und Soja. The note with it: in vivo. From the text:
(§1) Lösungsmittel: 5 Gewichtsteile Aceton Emulgator: 1 Gewichtsteil Alkylarylpolyglykolether Zur Herstellung einer zweckmäßigen Wirkstoffzubereitung vermischt man 1 Gewichtsteil Wirkstoff mit der angegebenen Menge Lösungsmittel, gibt die angegebene Menge Emulgator zu und verdünnt das Konzentrat mit Wasser auf die gewünschte Konzentration.
(§2) Mit der Wirkstoffzubereitung spritzt man Testpflanzen, welche eine Höhe von 5 - 15 cm haben so, daß die jeweils gewünschten Wirkstoffmengen pro Flächeneinheit ausgebracht werden. Nach drei Wochen wird der Schädigungsgrad der Pflanzen bonitiert in % Schädigung im Vergleich zur Entwicklung der unbehandelten Kontrolle.

The test system of another data set is Unkräuter. The experiment in a line: Post-emergence test, herbicidal action on weeds. The data set is classed as in vivo. The following applies: test plants 5 - 15 cm high sprayed, damage rated after three weeks vs untreated control, application rate not given.
Excerpt: as §1, §2

Structures are written as SMILES.

As for `CCCN1C(=O)COc2cc(F)c(-n3c(=O)nc(OCC)n(C)c3=O)cc21` [Beispiel 2, 3-(7-Fluor-3-oxo-4-propyl-1,4-benzoxazin-6-yl)-6-ethoxy-1-methyl-(1H,3H)-1,3,5-triazin-2,4-dion], the “Verträglichkeit gegenüber Kulturpflanzen, wie z.B. Weizen und Soja” value in data set [1] is “teilweise guter Verträglichkeit”. Moreover, the “Wirkung gegen Unkräuter” value in the data set on Unkräuter is “starke Wirkung”.
